T/C data for 21 compounds are collected here from PubChem BioAssay AID330 (DTP/NCI, 2004).

“And” between values parts separate entries of the source, which are not always exact repeats. Equal entries are not always repeated. Inconclusive results and toxic doses are left out.

The experiment relates to P388 leukemia ip, CD2F1 mice, survival T/C. Description: NCI In Vivo Anticancer Drug Screen. Data for tumor model P388 Leukemia (intraperitoneal) in CD2F1 (CDF1) mice. Conditions: endpoint: median survival time, higher = longer survival. A digest of the protocol:
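Mice carrying the transplanted tumor received test compound or vehicle. Survival was recorded in each group, and the value is the treated-group measurement divided by that of the vehicle-treated control group.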

Where [1] appears, read: dose: 50.0 mg/kg/injection, schedule: Q01DX005 (ip), vehicle: saline with Tween-80.
Where [2] appears, read: dose: 100.0 mg/kg/injection, schedule: Q01DX005 (ip), vehicle: saline with Tween-80.
Where [3] appears, read: dose: 200.0 mg/kg/injection, schedule: Q01DX005 (ip), vehicle: saline with Tween-80.
Where [4] appears, read: dose: 25.0 mg/kg/injection, schedule: Q01DX009 (ip), vehicle: saline with Tween-80.
[5] abbreviates: dose: 50.0 mg/kg/injection, schedule: Q01DX009 (ip), vehicle: saline with Tween-80.
[6] abbreviates: dose: 100.0 mg/kg/injection, schedule: Q01DX009 (ip), vehicle: saline with Tween-80.
The mark [7] stands for this setting: dose: 50.0 mg/kg/injection, schedule: Q01DX005 (ip), vehicle: saline.
[8] abbreviates: dose: 100.0 mg/kg/injection, schedule: Q04DX003 (ip), vehicle: saline.
The mark [9] stands for this setting: dose: 200.0 mg/kg/injection, schedule: Q04DX003 (ip), vehicle: saline.
Setting [10] is: dose: 50.0 mg/kg/injection, schedule: Q01DX009 (ip), vehicle: Klucel (hydroxypropylcellulose) (HPC).
Setting [11] is: dose: 100.0 mg/kg/injection, schedule: Q01DX009 (ip), vehicle: Klucel (hydroxypropylcellulose) (HPC).
The mark [12] stands for this setting: dose: 200.0 mg/kg/injection, schedule: Q01DX009 (ip), vehicle: Klucel (hydroxypropylcellulose) (HPC).

Take `Cc1nc2ccccc2c(=O)n1N1C2CCCC21` (stereo not drawn): the T/C was 103 % of control (dose: 50.0 mg/kg/injection, schedule: Q04DX002 (ip), vehicle: Klucel (hydroxypropylcellulose) (HPC)); 98 % of control (dose: 100.0 mg/kg/injection, schedule: Q04DX002 (ip), vehicle: Klucel (hydroxypropylcellulose) (HPC)); 100 % of control (dose: 200.0 mg/kg/injection, schedule: Q04DX002 (ip), vehicle: Klucel (hydroxypropylcellulose) (HPC)).

With `O=C(O)C(Nc1ccc2ccccc2c1)C(=O)O`, the T/C under setting [1] is 94 % of control, the T/C under setting [2] is 103 % of control and the T/C under setting [3] is 94 % of control.

For `CC1OC(n2cc(F)c(=O)[nH]c2=O)CC1O` (stereo not drawn), the T/C by setting is: (dose: 50.0 mg/kg/injection, schedule: Q01DX001 (ip), vehicle: saline) 104 % of control; (dose: 100.0 mg/kg/injection, schedule: Q01DX001 (ip), vehicle: saline) 106 % of control; (dose: 200.0 mg/kg/injection, schedule: Q01DX001 (ip), vehicle: saline) 105 % of control.

As for `CC(=O)Nc1ccc(S(=O)(=O)/N=C2\C=CC(=O)c3ccccc32)cc1`, the T/C is, setting by setting: under setting [4], 105 % of control; under setting [5], 115 % of control; under setting [6], 110 % of control.

In the case of `O=C(O)c1cc(C(=O)O)c(C(=O)O)cc1C(=O)O.[NH2-].[NH2-].[NH2-].[NH2-].[Pt+2].[Pt+2]`, the T/C was 106 % of control (dose: 0.78 mg/kg/injection, schedule: Q01DX005 (ip), vehicle: water); 108 % of control (dose: 1.56 mg/kg/injection, schedule: Q01DX005 (ip), vehicle: suspension in saline); 115 % of control (dose: 1.56 mg/kg/injection, schedule: Q01DX005 (ip), vehicle: water); 113 % of control (dose: 3.12 mg/kg/injection, schedule: Q01DX005 (ip), vehicle: saline); 119 % of control (dose: 3.13 mg/kg/injection, schedule: Q01DX005 (ip), vehicle: water); 105 % of control (dose: 6.25 mg/kg/injection, schedule: Q01DX005 (ip), vehicle: saline). Moreover, the T/C reads like this: (dose: 6.25 mg/kg/injection, schedule: Q01DX005 (ip), vehicle: suspension in saline) 118 % of control; (dose: 9.0 mg/kg/injection, schedule: Q01DX005 (ip), vehicle: suspension in saline) 110 % of control; (dose: 12.5 mg/kg/injection, schedule: Q01DX005 (ip), vehicle: suspension in saline) 161 % of control; (dose: 12.5 mg/kg/injection, schedule: Q01DX005 (ip), vehicle: water) 166 % of control; (dose: 25.0 mg/kg/injection, schedule: Q01DX005 (ip), vehicle: saline) 153 % of control; (dose: 25.0 mg/kg/injection, schedule: Q01DX005 (ip), vehicle: suspension in saline) 174 % of control and 176 % of control. For the same compound, the T/C was 150 % of control (dose: 41.67 mg/kg/injection, schedule: Q01DX005 (ip), vehicle: suspension in saline) and 186 % of control under setting [7].

`O=C1CC2c3ccccc3C1c1ccccc12`: the T/C by setting is: under setting [1], 95 % of control; under setting [2], 94 % of control; under setting [3], 96 % of control.

With `O=C(CC(c1ccncc1)C(C(=O)c1ccc(Cl)cc1)C(c1ccncc1)C(C(=O)c1ccc(Cl)cc1)C(O)c1ccncc1)c1ccc(Cl)cc1` (stereo not drawn), the T/C under setting [1] is 101 % of control, the T/C under setting [2] was 93 % of control and the T/C under setting [3] was 93 % of control.

Consider `CCOC1CC(C)(O)C(C(=O)OC)c2cc3c(c(O)c21)C(=O)c1c(O)cc2c(c1C3=O)OC1OC2(C)C(O)C(N(C)C)C1O` (stereo not drawn), for which the T/C is 151 % of control (dose: 3.16 mg/kg/injection, schedule: Q01DX009 (ip), vehicle: other); 161 % of control (dose: 6.25 mg/kg/injection, schedule: Q01DX009 (ip), vehicle: other); 171 % of control (dose: 12.5 mg/kg/injection, schedule: Q01DX009 (ip), vehicle: other).

In the case of `CC(C)C[C@H](O)C(=O)O`, the T/C (dose: 50.0 mg/kg/injection, schedule: Q04DX003 (ip), vehicle: saline) was 100 % of control; the T/C under setting [8] is 100 % of control; the T/C under setting [9] is 100 % of control.

For `O=C(O)c1cccc(/C=C/c2ccccc2)c1`, the T/C under setting [1] is 107 % of control, the T/C under setting [2] was 105 % of control and the T/C under setting [3] is 114 % of control.

Regarding `NC1C2CC3CC(C2)CC1(N)C3` (stereo not drawn), the T/C is, setting by setting: (dose: 12.5 mg/kg/injection, schedule: Q01DX009 (ip), vehicle: saline with Tween-80) 104 % of control; under setting [4], 102 % of control; under setting [5], 101 % of control and 96 % of control; under setting [6], 99 % of control; (dose: 200.0 mg/kg/injection, schedule: Q01DX009 (ip), vehicle: saline with Tween-80) 99 % of control.

For `Cc1nn(C(=O)c2ccncc2)c(C)c1N=Nc1ccc(S(=O)(=O)Nc2ncccn2)cc1`, the T/C under setting [10] is 109 % of control, the T/C under setting [11] is 109 % of control and the T/C under setting [12] is 105 % of control.

Consider `O=C1CC(=O)N2C=CC=CC2N1` (stereo not drawn), for which the T/C (dose: 25.0 mg/kg/injection, schedule: Q01DX009 (ip), vehicle: Klucel (hydroxypropylcellulose) (HPC)) is 106 % of control; the T/C under setting [10] was 106 % of control; the T/C under setting [11] is 97 % of control; the T/C under setting [12] is 97 % of control.

`COc1ccc(C(=O)C2C(=O)C(=O)OC2C2OC(=O)C(=O)C2C(=O)c2ccc(OC)cc2)cc1` (stereo not drawn): the T/C is 100 % of control (dose: 30.0 mg/kg/injection, schedule: Q01DX005 (ip), vehicle: saline); 94 % of control and 95 % of control (dose: 60.0 mg/kg/injection, schedule: Q01DX005 (ip), vehicle: saline); 93 % of control (dose: 120.0 mg/kg/injection, schedule: Q01DX005 (ip), vehicle: saline).

For `CC(C(=O)c1ccc(Cl)cc1)C1(O)C(=O)Nc2ccccc21` (stereo not drawn), the T/C reads like this: (dose: 60.0 mg/kg/injection, schedule: Q01DX005 (ip), vehicle: saline with Tween-80) 108 % of control; (dose: 120.0 mg/kg/injection, schedule: Q01DX005 (ip), vehicle: saline with Tween-80) 111 % of control; (dose: 240.0 mg/kg/injection, schedule: Q01DX005 (ip), vehicle: saline with Tween-80) 94 % of control.

On to `CC(=O)SC1CC(=O)OC1=O` (stereo not drawn), for which the T/C runs as follows: (dose: 25.0 mg/kg/injection, schedule: Q01DX009 (ip), vehicle: saline) 100 % of control; (dose: 50.0 mg/kg/injection, schedule: Q01DX009 (ip), vehicle: saline) 105 % of control; (dose: 100.0 mg/kg/injection, schedule: Q01DX009 (ip), vehicle: saline) 96 % of control; (dose: 200.0 mg/kg/injection, schedule: Q01DX009 (ip), vehicle: saline) 105 % of control.

For the compound `CNC(=O)OCc1c(Cl)nc2n1CCS2`, the T/C runs as follows: (dose: 25.0 mg/kg/injection, schedule: Q01DX001 (ip), vehicle: Klucel (hydroxypropylcellulose) (HPC)) 109 % of control; (dose: 50.0 mg/kg/injection, schedule: Q01DX001 (ip), vehicle: Klucel (hydroxypropylcellulose) (HPC)) 109 % of control; (dose: 100.0 mg/kg/injection, schedule: Q01DX001 (ip), vehicle: Klucel (hydroxypropylcellulose) (HPC)) 106 % of control.

On to `COC(OC)(OC)OC`, for which the T/C is 104 % of control under setting [7]; 108 % of control (dose: 100.0 mg/kg/injection, schedule: Q01DX005 (ip), vehicle: saline); 109 % of control (dose: 200.0 mg/kg/injection, schedule: Q01DX005 (ip), vehicle: saline).

As for `CS(=O)(=O)c1cccc(C(=O)O)c1`, the T/C is 108 % of control under setting [10], 108 % of control under setting [11] and 99 % of control under setting [12].

For the compound `CC(/C=N\Nc1ccc(C(=O)O)cc1)=N/N(C)C`, the T/C under setting [8] was 101 % of control; the T/C under setting [9] is 98 % of control; the T/C (dose: 400.0 mg/kg/injection, schedule: Q04DX003 (ip), vehicle: saline) was 101 % of control.

As to `COC1=CC(C)C2CC3OC(O)CC4C(C)=C(OC)C(=O)C(C2(C)C1=O)C34C` (stereo not drawn), the T/C (dose: 60.0 mg/kg/injection, schedule: Q01DX005 (ip), vehicle: Klucel (hydroxypropylcellulose) (HPC)) is 94 % of control; the T/C (dose: 120.0 mg/kg/injection, schedule: Q01DX005 (ip), vehicle: Klucel (hydroxypropylcellulose) (HPC)) is 94 % of control; the T/C (dose: 240.0 mg/kg/injection, schedule: Q01DX005 (ip), vehicle: Klucel (hydroxypropylcellulose) (HPC)) is 89 % of control.
